In US8906928B2, “Substituted pyrazolo-pyrrolo-pyridine-dione compounds” (ArQule, Inc., priority 2009, dated 2014):

Assays:
Format in all cases: cell-based
PC-3 = test: MTS assay (cell growth inhibition), PC-3; details: PC-3 cells, 72 hours incubation with test compound; concentration not given
Method in brief: (§1)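 First, seed 3000 cells per well in low-serum (1% FBS) DMEM and culture 18 h. Next, add compounds prepared at 300× in DMSO and diluted 1:40 in DMEM; incubate 72 h. Finally, add MTS/PMS for 4 h and measure absorbance at 492 nm.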

NCI-H1299 = test: MTS assay (cell growth inhibition), NCI-H1299; details: NCI-H1299 cells, 72 hours incubation with test compound; concentration not given
Method in brief: as §1

DLD-1 = test: MTS assay (cell growth inhibition), DLD-1; details: DLD-1 cells, 72 hours incubation with test compound; concentration not given
Method in brief: as §1

MDA-MB = test: MTS assay (cell growth inhibition), MDA-MB; details: MDA-MB cells, 72 hours incubation with test compound; concentration not given
Method in brief: as §1

Kato III = test: MTS assay (cell growth inhibition), Kato III; details: Kato III cells, 72 hours incubation with test compound; concentration not given
Method in brief: as §1

PACA-2 = test: MTS assay (cell growth inhibition), PACA-2; details: PACA-2 cells, 72 hours incubation with test compound; concentration not given
Method in brief: as §1

**Q.** Which “MTS CELL KILL DATA (% INHIBITION) PC-3” value (PC-3) does the source give for `O=C1c2cnc3[nH]ncc3c2C(=O)N1CCOc1ccccc1Cl` [Example 25, 7-[2-(2-chlorophenoxy)ethyl]pyrazolo[3,4-b]pyrrolo[3,4-d]pyridine-6,8(3H,7H)-dione] here?
**A.** Its value is “A (A = 80-100% INHIBITION)”.

**Q.** What about the “MTS CELL KILL DATA (% INHIBITION) NCI-H1299” value (NCI-H1299) of the same molecule?
**A.** The value was “C (C = <50% INHIBITION)”.

**Q.** And the “MTS CELL KILL DATA (% INHIBITION) DLD-1” value (DLD-1)?
**A.** Its value is “C (C = <50% INHIBITION)”.

**Q.** And the “MTS CELL KILL DATA (% INHIBITION) MDA-MB” value (MDA-MB)?
**A.** The value was “A (A = 80-100% INHIBITION)”.

**Q.** What about the “MTS CELL KILL DATA (% INHIBITION) Kato III” value (Kato III) of the same molecule?
**A.** The value was “C (C = <50% INHIBITION)”.

**Q.** And the “MTS CELL KILL DATA (% INHIBITION) PACA-2” value (PACA-2)?
**A.** Its value is “C (C = <50% INHIBITION)”.

**Q.** Which results are given for `CC(CCN1C(=O)c2cnc3[nH]ncc3c2C1=O)CC(C)(C)C` (stereo not drawn) [Example 117, 7-(3,5,5-trimethylhexyl)pyrazolo[3,4-b]pyrrolo[3,4-d]pyridine-6,8(3H,7H)-dione]?
**A.** MTS CELL KILL DATA (% INHIBITION) PC-3 (PC-3): A (A = 80-100% INHIBITION); MTS CELL KILL DATA (% INHIBITION) NCI-H1299 (NCI-H1299): C (C = <50% INHIBITION); MTS CELL KILL DATA (% INHIBITION) DLD-1 (DLD-1): C (C = <50% INHIBITION); MTS CELL KILL DATA (% INHIBITION) MDA-MB (MDA-MB): A (A = 80-100% INHIBITION); MTS CELL KILL DATA (% INHIBITION) Kato III (Kato III): C (C = <50% INHIBITION); MTS CELL KILL DATA (% INHIBITION) PACA-2 (PACA-2): C (C = <50% INHIBITION)

**Q.** With `O=C1c2cnc3[nH]ncc3c2C(=O)N1Cc1ccccc1I` [Example 111, 7-(2-iodobenzyl)pyrazolo[3,4-b]pyrrolo[3,4-d]pyridine-6,8(3H,7H)-dione] as the molecule, how does the “MTS CELL KILL DATA (% INHIBITION) PC-3” value (PC-3) read?
**A.** Its value is “C (C = <50% INHIBITION)”.

**Q.** And the “MTS CELL KILL DATA (% INHIBITION) NCI-H1299” value (NCI-H1299)?
**A.** The value was “C (C = <50% INHIBITION)”.

**Q.** What about the “MTS CELL KILL DATA (% INHIBITION) DLD-1” value (DLD-1) of the same molecule?
**A.** The value was “C (C = <50% INHIBITION)”.

**Q.** And the “MTS CELL KILL DATA (% INHIBITION) MDA-MB” value (MDA-MB)?
**A.** The value was “C (C = <50% INHIBITION)”.

**Q.** And the “MTS CELL KILL DATA (% INHIBITION) Kato III” value (Kato III)?
**A.** The value was “C (C = <50% INHIBITION)”.

**Q.** And the “MTS CELL KILL DATA (% INHIBITION) PACA-2” value (PACA-2)?
**A.** Its value is “C (C = <50% INHIBITION)”.

**Q.** `CCCCN(CCCC)CCN1C(=O)c2cnc3[nH]ncc3c2C1=O` [Example 18, 7-[2-(dibutylamino)ethyl]pyrazolo[3,4-b]pyrrolo[3,4-d]pyridine-6,8(3H,7H)-dione] was tested. Which “MTS CELL KILL DATA (% INHIBITION) PC-3” value (PC-3) did it give?
**A.** The value was “A (A = 80-100% INHIBITION)”.

**Q.** What about the “MTS CELL KILL DATA (% INHIBITION) NCI-H1299” value (NCI-H1299) of the same molecule?
**A.** Its value is “C (C = <50% INHIBITION)”.

**Q.** And the “MTS CELL KILL DATA (% INHIBITION) DLD-1” value (DLD-1)?
**A.** Its value is “C (C = <50% INHIBITION)”.

**Q.** What about the “MTS CELL KILL DATA (% INHIBITION) MDA-MB” value (MDA-MB) of the same molecule?
**A.** Its value is “A (A = 80-100% INHIBITION)”.

**Q.** What about the “MTS CELL KILL DATA (% INHIBITION) Kato III” value (Kato III) of the same molecule?
**A.** Its value is “C (C = <50% INHIBITION)”.

**Q.** And the “MTS CELL KILL DATA (% INHIBITION) PACA-2” value (PACA-2)?
**A.** Its value is “C (C = <50% INHIBITION)”.

**Q.** With `O=C1c2ccccc2C(=O)N1CCN1C(=O)c2cnc3[nH]ncc3c2C1=O` [Example 131, 7-[2-(1,3-dioxo-1,3-dihydro-2H-isoindol-2-yl)ethyl]pyrazolo[3,4-b]pyrrolo[3,4-d]pyridine-6,8(3H,7H)-dione] as the molecule, how does the “MTS CELL KILL DATA (% INHIBITION) PC-3” value (PC-3) read?
**A.** The value was “A (A = 80-100% INHIBITION)”.

**Q.** What about the “MTS CELL KILL DATA (% INHIBITION) NCI-H1299” value (NCI-H1299) of the same molecule?
**A.** Its value is “A (A = 80-100% INHIBITION)”.

**Q.** And the “MTS CELL KILL DATA (% INHIBITION) DLD-1” value (DLD-1)?
**A.** Its value is “A (A = 80-100% INHIBITION)”.

**Q.** And the “MTS CELL KILL DATA (% INHIBITION) MDA-MB” value (MDA-MB)?
**A.** The value was “A (A = 80-100% INHIBITION)”.

**Q.** And the “MTS CELL KILL DATA (% INHIBITION) Kato III” value (Kato III)?
**A.** The value was “A (A = 80-100% INHIBITION)”.

**Q.** And the “MTS CELL KILL DATA (% INHIBITION) PACA-2” value (PACA-2)?
**A.** Its value is “A (A = 80-100% INHIBITION)”.

**Q.** What does the source list for `COc1cccc(CN2C(=O)c3cnc4[nH]ncc4c3C2=O)c1OC` [Example 92, 7-(2,3-dimethoxybenzyl)pyrazolo[3,4-b]pyrrolo[3,4-d]pyridine-6,8(3H,7H)-dione]?
**A.** MTS CELL KILL DATA (% INHIBITION) PC-3 (PC-3): C (C = <50% INHIBITION); MTS CELL KILL DATA (% INHIBITION) NCI-H1299 (NCI-H1299): C (C = <50% INHIBITION); MTS CELL KILL DATA (% INHIBITION) DLD-1 (DLD-1): C (C = <50% INHIBITION); MTS CELL KILL DATA (% INHIBITION) MDA-MB (MDA-MB): C (C = <50% INHIBITION); MTS CELL KILL DATA (% INHIBITION) Kato III (Kato III): C (C = <50% INHIBITION); MTS CELL KILL DATA (% INHIBITION) PACA-2 (PACA-2): C (C = <50% INHIBITION)

**Q.** `CC(C)(C)c1ccc(-c2n[nH]c3ncc4c(c23)C(=O)N(CCc2ccccc2)C4=O)cc1` [Example 166, 1-(4-tert-butylphenyl)-7-(2-phenylethyl)pyrazolo[3,4-b]pyrrolo[3,4-d]pyridine-6,8(3H,7H)-dione] was tested. Which “MTS CELL KILL DATA (% INHIBITION) PC-3” value (PC-3) did it give?
**A.** The value was “C (C = <50% INHIBITION)”.

**Q.** What about the “MTS CELL KILL DATA (% INHIBITION) NCI-H1299” value (NCI-H1299) of the same molecule?
**A.** Its value is “C (C = <50% INHIBITION)”.

**Q.** And the “MTS CELL KILL DATA (% INHIBITION) DLD-1” value (DLD-1)?
**A.** Its value is “A (A = 80-100% INHIBITION)”.

**Q.** And the “MTS CELL KILL DATA (% INHIBITION) MDA-MB” value (MDA-MB)?
**A.** The value was “A (A = 80-100% INHIBITION)”.

**Q.** What about the “MTS CELL KILL DATA (% INHIBITION) Kato III” value (Kato III) of the same molecule?
**A.** Its value is “C (C = <50% INHIBITION)”.

**Q.** And the “MTS CELL KILL DATA (% INHIBITION) PACA-2” value (PACA-2)?
**A.** The value was “B (B = 50-79% INHIBITION)”.
